Measurements: patent US20230167088A1, “1-PYRAZINYLPYRAZOLYL-3-OXYALKYL ACIDS AND THEIR DERIVATIVES, AND THEIR USE FOR CONTROL OF UNDESIRED PLANT GROWTH” (BAYER AKTIENGESELLSCHAFT, priority 2020, published 2023)

What was measured:
AVEFA = assay: Herbicidal pre-emergence action 2a (greenhouse pots, visual scoring); type: in vivo, Avena fatua; details: dosage 320 g/ha, visual scoring after about 3 weeks
How it was run: (§1)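 Pots of covered seed were sprayed pre-emergence at 320 and/or 80 g/ha. Roughly three weeks of greenhouse growth preceded visual scoring in percent versus untreated controls.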

ECHCG [1] = assay: Herbicidal pre-emergence action 2b (doubly sown, 1280 g/ha); type: in vivo, Echinochloa crus-galli; details: doubly sown pots, dosage 1280 g/ha, visual scoring after about 3 weeks
How it was run: (§2)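 Read-out: visual percentage damage relative to untreated controls, scored after roughly 3 weeks in the greenhouse, where 100% means plants died and 0% equals control. Seeds were sown two species per pot in sandy loam and covered before the compounds, formulated as WP or EC with 0.5% additive, were sprayed onto the soil at 600 L/ha.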

ALOMY [2] = assay: Herbicidal post-emergence action 1a (greenhouse pots, visual rating); type: in vivo, Alopecurus myosuroides; details: Dosage 80 g/ha; rated visually about 3 weeks after treatment; 100% = plants have died, 0% = like control plants
How it was run: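 Weeds and crops sown in sandy loam in greenhouse pots were sprayed post-emergence at the one-leaf stage (2–3 weeks after sowing) with WP or EC formulations plus 0.5% additive at 600 l/ha water, 320 and/or 80 g/ha. About 3 weeks later damage was rated visually against untreated controls (0% = no effect, 100% = dead).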

VERPE = assay: Herbicidal pre-emergence action 2a (greenhouse pots, visual scoring); type: in vivo, Veronica persica; details: dosage 320 g/ha, visual scoring after about 3 weeks vs untreated controls
How it was run: as §1

VIOTR = assay: as above; type: in vivo, Viola tricolor; details: dosage 320 g/ha, visual scoring after about 3 weeks vs untreated controls
How it was run: as §1

ECHCG [3] = assay: Herbicidal post-emergence action 1b (twin sowing, 1280 g/ha); type: in vivo, Echinochloa crus-galli; details: dosage 1280 g/ha, visual rating about 3 weeks after treatment
How it was run: (§3)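 Sow paired weed species in sandy loam pots and grow in the greenhouse; at the one-leaf stage (2–3 weeks) spray green parts with compound suspension or emulsion containing 0.5% additive at 600 L water/ha; keep about 3 weeks, then score damage visually relative to untreated plants.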

DIGSA [4] = assay: Herbicidal pre-emergence action 2b (doubly sown, 1280 g/ha); type: in vivo, Digitaria sanguinalis; details: doubly sown pots, dosage 1280 g/ha, visual scoring after about 3 weeks
How it was run: as §2

ECHCG [5] = assay: Herbicidal pre-emergence action 2a (greenhouse pots, visual scoring); type: in vivo, Echinochloa crus-galli; details: dosage 320 g/ha, visual scoring after about 3 weeks
How it was run: as §1

STEME [6] = assay: Herbicidal post-emergence action 1b (twin sowing, 1280 g/ha); type: in vivo, Stellaria media; details: dosage 1280 g/ha, visual rating about 3 weeks after treatment
How it was run: as §3

SETVI = assay: Herbicidal pre-emergence action 2a (greenhouse pots, visual scoring); type: in vivo, Setaria viridis; details: dosage 320 g/ha, visual scoring after about 3 weeks vs untreated controls
How it was run: as §1

DIGSA [7] = assay: Herbicidal post-emergence action 1b (twin sowing, 1280 g/ha); type: in vivo, Digitaria sanguinalis; details: dosage 1280 g/ha, visual rating about 3 weeks after treatment
How it was run: as §3

POAAN [8] = assay: as above; type: in vivo, Poa annua; details: dosage 1280 g/ha, visual rating about 3 weeks after treatment
How it was run: as §3

POAAN [9] = assay: Herbicidal pre-emergence action 2b (doubly sown, 1280 g/ha); type: in vivo, Poa annua; details: doubly sown pots, dosage 1280 g/ha, visual scoring after about 3 weeks
How it was run: as §2

ABUTH = assay: Herbicidal post-emergence action 1b (twin sowing, 1280 g/ha); type: in vivo, Abutilon theophrasti; details: dosage 1280 g/ha, visual rating about 3 weeks after treatment
Method: [table] b) Seeds of mono- and dicotyledonous weed plants are placed in plastic pots in sandy loam soil (twin sowing with one species each of mono- or dicotyledonous weed plants per pot), covered with soil and cultivated in a greenhouse under controlled growth conditions. 2 to 3 weeks after sowing, the test plants are treated at the one-leaf stage. The compounds of the invention, formulated in the form of wettable powders (WP) or as emulsion concentrates (EC), are applied to the green parts of the plants as aqueous suspension or emulsion with addition of 0.5% additive at a water application rate equivalent to 600 litres per hectare. After the test plants have been kept in the greenhouse under optimum growth conditions for about 3 weeks, the activity of the preparations is rated visually in comparison to untreated controls. For example, 100% activity=the plants have died, 0% activity=like control plants. Tables A16 to A21 below show the effects of selected compounds of the general formula (I) according to Tables 1 and 2 on various harmful plants and at an application rate corresponding to 1280 g/ha, which were obtained by the experimental procedure mentioned above.

PHBPU = assay: Herbicidal pre-emergence action 2a (greenhouse pots, visual scoring); type: in vivo, Pharbitis purpurea; details: dosage 320 g/ha, visual scoring after about 3 weeks vs untreated controls
Source text: [table] a) Seeds of monocotyledonous and dicotyledonous weed plants and crop plants are placed in plastic or organic plant pots and covered with soil. The compounds of the invention, formulated in the form of wettable powders (WP) or as emulsion concentrates (EC), are then applied onto the surface of the covering soil as aqueous suspension or emulsion with addition of 0.5% additive at a water application rate of 600 1/ha (converted). After the treatment, the pots are placed in a greenhouse and kept under good growth conditions for the trial plants. After about 3 weeks, the effect of the preparations is scored visually in comparison with untreated controls as percentages. For example, 100% activity=the plants have died, 0% activity=like control plants. Tables B1 to B15 below show the effects of selected compounds of the general formula (I) according to Tables 1 and 2 on various harmful plants and an application rate corresponding to 320 g/ha and/or 80 g/ha, which were obtained by the experimental procedure mentioned above.

AMARE [10] = assay: as above; type: in vivo, Amaranthus retroflexus; details: dosage 320 g/ha, visual scoring after about 3 weeks vs untreated controls
How it was run: as §1

POLCO = assay: as above; type: in vivo, Polygonum convolvulus; details: dosage 320 g/ha, visual scoring after about 3 weeks vs untreated controls
How it was run: as §1

STEME [11] = assay: Herbicidal pre-emergence action 2b (doubly sown, 1280 g/ha); type: in vivo, Stellaria media; details: doubly sown pots, dosage 1280 g/ha, visual scoring after about 3 weeks
How it was run: as §2

MATIN [12] = assay: Herbicidal pre-emergence action 2a (greenhouse pots, visual scoring); type: in vivo, Matricaria inodora; details: dosage 320 g/ha, visual scoring after about 3 weeks vs untreated controls
How it was run: as §1

ALOMY [13] = assay: as above; type: in vivo, Alopecurus myosuroides; details: dosage 320 g/ha, visual scoring after about 3 weeks
How it was run: as §1

MATIN [14] = assay: Herbicidal post-emergence action 1b (twin sowing, 1280 g/ha); type: in vivo, Matricaria inodora; details: dosage 1280 g/ha, visual rating about 3 weeks after treatment
How it was run: as §3

MATIN [15] = assay: Herbicidal pre-emergence action 2b (doubly sown, 1280 g/ha); type: in vivo, Matricaria inodora; details: doubly sown pots, dosage 1280 g/ha, visual scoring after about 3 weeks
How it was run: as §2

AMARE [16] = assay: as above; type: in vivo, Amaranthus retroflexus; details: doubly sown pots, dosage 1280 g/ha, visual scoring after about 3 weeks
How it was run: as §2

## COCCOCCOC(=O)COc1nn(-c2cnccn2)c(-c2ccc(F)nc2)c1Br [Example I-67]
AVEFA
  Pre-emergence action against AVEFA in %: 80%
ECHCG [1]
  Pre-emergence action at 1280 g/ha against ECHCG in %: 100%
ALOMY [2]
  Post-emergence action against ALOMY in %: 90%
VERPE
  Pre-emergence action against VERPE in %: 90%
VIOTR
  Pre-emergence action against VIOTR in %: 90%
ECHCG [3]
  Post-emergence action at 1280 g/ha against ECHCG in %: 90%
DIGSA [4]
  Pre-emergence action at 1280 g/ha against DIGSA in %: 100%
ECHCG [5]
  Pre-emergence action against ECHCG in %: 90%
STEME [6]
  Post-emergence action at 1280 g/ha against STEME in %: 90%
SETVI
  Pre-emergence action against SETVI in %: 90%
DIGSA [7]
  Post-emergence action at 1280 g/ha against DIGSA in %: 100%
POAAN [8]
  Post-emergence action at 1280 g/ha against POAAN in %: 100%
POAAN [9]
  Pre-emergence action at 1280 g/ha against POAAN in %: 100%
ABUTH
  Post-emergence action at 1280 g/ha against ABUTH in %: 90%
PHBPU
  Pre-emergence action against PHBPU in %: 80%
AMARE [10]
  Pre-emergence action against AMARE in %: 100%
POLCO
  Pre-emergence action against POLCO in %: 90%
STEME [11]
  Pre-emergence action at 1280 g/ha against STEME in %: 100%
MATIN [12]
  Pre-emergence action against MATIN in %: 80%
ALOMY [13]
  Pre-emergence action against ALOMY in %: 100%
MATIN [14]
  Post-emergence action at 1280 g/ha against MATIN in %: 100%
MATIN [15]
  Pre-emergence action at 1280 g/ha against MATIN in %: 100%
AMARE [16]
  Pre-emergence action at 1280 g/ha against AMARE in %: 100%
